Patent publication US10471118B2, “Retinylamine derivitives for treatment of ocular disorders” (CASE WESTERN RESERVE UNIVERSITY, priority 2014, dated 2019)
“Also recorded” adds a separate entry of the source.

Experiments:
Abca4^−/−Rdh8^−/− mice [1] = test: Light-induced retinal degeneration in Abca4-/-Rdh8-/- mice (OCT, ERG, histology), Example 1; assay type: in vivo, mouse; settings: for protection against light-induced retinal degeneration (ONL thickness from OCT): 0.875 μmol per mouse oral gavage 16 h before 10,000 lux 1 h, OCT after 3 days in dark
Experimental: Abca4^−/−Rdh8^−/− double knockout mice were housed in the animal facility at the School of Medicine, Case Western Reserve University, where they were maintained under either complete darkness or a 12-h light (−10 1×) and 12-h dark cycle. All retinylamine tested were dissolved or suspended in 100 μl of vegetable oil with less than 10% (v/v) DMSO and were administered by oral gavage with a 22-gauge feeding needle. Experimental manipulations in the dark were done under dim red light transmitted through a Kodak No. 1 safelight filter (transmittance >560 nm). All animal procedures and experiments were approved by the Case Western Reserve University Animal Care Committees and conformed to recommendations of the American Veterinary Medical Association Panel on Euthanasia and the Association of Research for Vision and Ophthalmology.
After dark adaptation for 48 h, one or two Abca4^−/−Rdh8^−/− mice with pupils dilated by 1% tropicamide were exposed to fluorescent light (10,000 1×; 150-W spiral lamp, Commercial Electric) for 60 min in a white plastic bucket (Papersmith) with food and water and then kept in the dark. Histological and biochemical experiments were performed 3 days after exposure.
Ultra-high resolution spectral-domain OCT (SD-OCT; Bioptigen) and Heidelberg Retinal Angiograph II SLO (Heidelberg Engineering) were used for in vivo imaging of mouse retinas. Mice were anesthetized by intraperitoneal injection of a cocktail (20 μl g-1 body weight) containing ketamine (6 mg ml-1) and xylazine (0.44 mg ml-1) in 10 mM sodium phosphate, pH 7.2, and 100 mM NaCl. Pupils were dilated with 1% tropicamide. Four pictures acquired in the B-scan mode were used to construct each final averaged SD-OCT image.
All ERG procedures were performed by published methods. For single-flash recording, the duration of white-light flash stimuli (from 20 μs to 1 ms) was adjusted to provide a range of illumination intensities (from −3.7 to 1.6 log cd s m-2). Three to five recordings were made at sufficient intervals between flash stimuli (from 3 s to 1 min) to allow recovery from any photobleaching effects.
Mouse eyes were fixed for 24 h by rocking in a fixation solution (2 ml/eye) containing 4% paraformaldehyde and 1% glutaraldehyde in PBS. The tissue was processed through a series of ethanols, xylenes, and paraffins in a Tissue-Tek VIP automatic processor (Sakura, Torrance, Calif., USA), and 5-μm sections were cut using a Microm HM355 paraffin microtome (Thermo Fisher Scientific, Waltham, Mass., USA) and stained with hematoxylin and eosin (H&E) stain. Images of stained sections were captured by a Leica CTR6000 microscope attached to a CCD camera (Micropublisher 5.0 RTV, Qimaging Surray BC, Canada).
The effectiveness of the retinylamine derivatives on preventing light-induced retinal degeneration was tested in four-week old Abca4^−/−Rdh8^−/− mice according to the experimental scheme depicted in FIG. 1. After the mice were dark-adapted for 48 h, the drugs were gavaged at a dose 0.875 μmol/per mouse, which was selected based on the half protection dose for retinylamine after a dosing experiment, FIG. 2. Retinylamine was tested as a control at the same dose. […] Retinal integrity was assessed using optical coherence tomography (OCT). […] The mice without any treatment had photoreceptor cells completely destroyed after light illumination, and were used as a negative control. The retinal integrity was determined based on the thickness of outer nuclear layer (ONL) of the retinas measured from the OCT images. Reduced ONL thickness signifies the decreasing number of photoreceptors and retinal degeneration.

[2] = Storage stability of PEG-GFL-NH-Ret conjugate in solid form; assay type: physicochemical; settings: room temperature, same condition
Text: The number and weight-average molecular weights of polymer conjugate was 21 and 22 kDa (Mw/Mn=1.05), as determined by size exclusion chromatography. […] The structure of PEG-GFL-NHRet was preserved during the storage in solid form more than 6 months at room temperature, while free Ret-NH2 decomposed in less than 1 week under the same condition.

[3] = Pharmacokinetics of PEG-GFL-NH-Ret in C57BL mice (N-retinylamides in liver and eye); assay type: in vivo; settings: 1 mg equivalent Ret-NH2 per mouse oral, especially first 8 h after gavage
Experimental: Female C57BL mice (4-week-old) were randomly divided into two dosing groups. One group of mice was gavaged with one dose of Ret-NH2 (1 mg per mouse, dissolved in DMSO), and the other group of mice was also gavaged once with PEG-GFL-NH-Ret (17.5 mg per mouse, equivalent to 1 mg Ret-NH2 per mouse). Then at each predetermined time point (0, 4 h, 8 h, 24 h, 48 h and 72 h after drug administration), 6 mice were sacrificed. The liver and eye balls were collected to determine tissue N-retinylamide content for pharmacokinetic analysis. A portion of the liver tissue (ca. 0.5 g) was weighed, homogenized in 2 mL 1:1 ethanol:PBS solution and the eye balls were similarly processed. N-Retinylamides were extracted in 4 mL hexane, concentrated, and reconstituted to a 300 μL volume. Normal-phase HPLC (Agilent-Zorbax SIL; 5 μm; 4.5×250 mm; flow rate of 1.4 mL/min; 80:20 hexane:ethyl acetate (v:v); detection at 325 nm) was utilized to determine N-retinylamide concentration in these tissues.

Abca4^−/−Rdh8^−/− mice [4] = test: Preventing light-induced retinal degeneration with PEG-GFL-NH-Ret in Abca4-/-Rdh8-/- mice; assay type: in vivo, mouse
Experimental: Abca4^−/−Rdh8^−/− mice (male and female, 4-week-old, 4-5 mice in each treatment group) were kept in the dark for 48 h before each experiment. Then free Ret-NH2 (0.5 mg, 1.75 μmol) per mouse) or conjugate PEG-GFL-NH-Ret (8.75 mg per mouse, equivalent to 0.5 mg free Ret-NH2 per mouse) was administered by gastric gavage. Mice were illuminated with 10,000 lux light for 30 min at 1 day, 3 days or 6 days after their gavage, and then kept in the dark for 7 days when final retinal evaluations were performed. […] Dark-adapted mice were anesthetized by the same protocol used for OCT recordings. All experimental procedures were performed under a safety light. A contact lens electrode was placed on the eye, and a reference electrode and ground electrode were placed underneath the skin between the two ears and in the tail, respectively. ERGs were recorded with the universal electrophysiologic system UTAS E-3000 (LKC Technologies, Inc., Gaithersburg, Md.). Light intensity calibrated by the manufacturer was computer-controlled. Mice were placed in a Ganzfeld dome, and scotopic responses to flash stimuli were obtained from both eyes simultaneously.

Row | time to decomposition on storage [2] | ERG responses (Abca4^−/−Rdh8^−/− mice [4]; gavaged 3 days before strong light exposure) | protection against light-induced retinal degeneration (ONL thickness from OCT) (Abca4^−/−Rdh8^−/− mice [1]; listed as phenylalanyl) | SMILES | average scotopic a wave ERG peak amplitudes (Abca4^−/−Rdh8^−/− mice [1]; 0.875 μmol per mouse 16 h prior to light illumination, evaluated 7 days later) | protection against light-induced retinal degeneration (ONL thickness from OCT) (Abca4^−/−Rdh8^−/− mice [1]) | retina structure by histology (H&E) (Abca4^−/−Rdh8^−/− mice [1]; treated before intense light exposure, 7 days after light exposure) | liver concentrations of N-retinylamides [3] | protection against light-induced retinal degeneration by OCT (Abca4^−/−Rdh8^−/− mice [4]; 0.5 mg Ret-NH2 equivalent per mouse gavaged 1 day before light exposure) | protection against light-induced retinal degeneration by OCT (Abca4^−/−Rdh8^−/− mice [4]; 0.5 mg Ret-NH2 equivalent per mouse gavaged 3 days before light exposure) | protection against light-induced retinal degeneration by OCT (Abca4^−/−Rdh8^−/− mice [4]; 0.5 mg Ret-NH2 equivalent per mouse gavaged 6 days before light exposure) | ONL thickness from OCT images (Abca4^−/−Rdh8^−/− mice [4]; gavaged 1 day before light exposure) | ONL thickness from OCT images (Abca4^−/−Rdh8^−/− mice [4]; gavaged 3 days before strong light illumination)
1 | – | – | – | CC1=C(/C=C/C(C)=C/C=C/C(C)=C/CNC(=O)[C@@H](NC(=O)CN)C(C)C)C(C)(C)CCC1 [RVG, (S)-2-(2-aminoacetamido)-N-((2E,4E,6E,8E)-3,7-dimethyl-9-(2,6,6-trimethylcyclohex-1-en-1-yl)nona-2,4,6,8-tetraen-1-yl)-3-methylbutanamide] | virtually the same as those without light-illumination (NLI) | significant improvement on preventing light-induced retinopathy over retinyl amine | maintained intact retina structure; also recorded: protected Abca4^−/−Rdh8^−/− retina from light damage | – | – | – | – | – | –
2 | less than 1 week | significant loss of ERG activity | – | CC1=C(/C=C/C(C)=C/C=C/C(C)=C/CN)C(C)(C)CCC1 [Ret-NH2, (2E,4E,6E,8E)-3,7-dimethyl-9-(2,6,6-trimethylcyclohex-1-en-1-yl)nona-2,4,6,8-tetraen-1-amine] | – | – | – | much higher liver concentrations of N-retinylamides than those treated with the conjugate | effective protection against light-induced retinal degeneration | did not maintain such protection | No protective effect | thickness comparable to that of mice without light illumination | significantly reduced
3 | – | – | little protecting efficacy | CC1=C(/C=C/C(C)=C/C=C/C(C)=C/CNC(=O)[C@@H](N)Cc2ccccc2)C(C)(C)CCC1 [RF, (S)-2-amino-N-((2E,4E,6E,8E)-3,7-dimethyl-9-(2,6,6-trimethylcyclohex-1-en-1-yl)nona-2,4,6,8-tetraen-1-yl)-3-phenylpropanamide] | – | low protecting effect | – | – | – | – | – | – | –
